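Values below derive from 48-hour exposures of cells grown in 96-well plates, with endpoints linearly interpolated between the two concentrations bracketing the appropriate inhibition level. At the GI50, growth is halved. TGI is the concentration that stops growth completely.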
Key:
Assay in all cases: growth of human tumour cells (NCI), 48 h
786-0 renal = test system: 786-0 renal
A498 renal = test system: A498 renal
A549 NSCLC = test system: A549 NSCLC
ACHN renal = test system: ACHN renal
BT-549 breast = test system: BT-549 breast
CAKI-1 renal = test system: CAKI-1 renal
CCRF-CEM leukemia = test system: CCRF-CEM leukemia
COLO 205 colon = test system: COLO 205 colon
DU-145 prostate = test system: DU-145 prostate
HCC-2998 colon = test system: HCC-2998 colon
HCT-116 colon = test system: HCT-116 colon
HCT-15 colon = test system: HCT-15 colon
HL-60(TB) leukemia = test system: HL-60(TB) leukemia
HOP-62 NSCLC = test system: HOP-62 NSCLC
HOP-92 NSCLC = test system: HOP-92 NSCLC
HS 578T breast = test system: HS 578T breast
HT29 colon = test system: HT29 colon
IGROV1 ovarian = test system: IGROV1 ovarian
K-562 leukemia = test system: K-562 leukemia
KM12 colon = test system: KM12 colon
LOX IMVI melanoma = test system: LOX IMVI melanoma
M14 melanoma = test system: M14 melanoma
MALME-3M melanoma = test system: MALME-3M melanoma
MCF7 breast = test system: MCF7 breast
MDA-MB-231 breast = test system: MDA-MB-231 breast
MDA-MB-435 = test system: MDA-MB-435
MOLT-4 leukemia = test system: MOLT-4 leukemia
NCI-H226 lung = test system: NCI-H226 lung
NCI-H23 lung = test system: NCI-H23 lung
NCI-H460 lung = test system: NCI-H460 lung
NCI-H522 lung = test system: NCI-H522 lung
NCI/ADR-RES ovarian = test system: NCI/ADR-RES ovarian
OVCAR-3 ovarian = test system: OVCAR-3 ovarian
OVCAR-4 ovarian = test system: OVCAR-4 ovarian
OVCAR-5 ovarian = test system: OVCAR-5 ovarian
OVCAR-8 ovarian = test system: OVCAR-8 ovarian
PC-3 prostate = test system: PC-3 prostate
RPMI-8226 leukemia = test system: RPMI-8226 leukemia
RXF 393 renal = test system: RXF 393 renal
SF-268 CNS = test system: SF-268 CNS
SF-295 CNS = test system: SF-295 CNS
SF-539 CNS = test system: SF-539 CNS
SK-MEL-2 melanoma = test system: SK-MEL-2 melanoma
SK-MEL-28 melanoma = test system: SK-MEL-28 melanoma
SK-MEL-5 melanoma = test system: SK-MEL-5 melanoma
SK-OV-3 ovarian = test system: SK-OV-3 ovarian
SN12C renal = test system: SN12C renal
SNB-19 CNS = test system: SNB-19 CNS
SNB-75 CNS = test system: SNB-75 CNS
SR leukemia = test system: SR leukemia
SW-620 colon = test system: SW-620 colon
T-47D breast = test system: T-47D breast
TK-10 renal = test system: TK-10 renal
U251 CNS = test system: U251 CNS
UACC-257 melanoma = test system: UACC-257 melanoma
UACC-62 melanoma = test system: UACC-62 melanoma
UO-31 renal = test system: UO-31 renal

SMILES: N#CCn1c(=O)c(Oc2ccc(F)cc2F)cc2cnc(NC3CCOCC3)nc21
- GI50 (786-0 renal): > 25 µM
- TGI (786-0 renal): > 25 µM
- GI50 (A498 renal): 24.7 µM
- TGI (A498 renal): > 25 µM
- GI50 (A549 NSCLC): > 25 µM
- TGI (A549 NSCLC): > 25 µM
- GI50 (ACHN renal): 19.5 µM
- TGI (ACHN renal): > 25 µM
- GI50 (BT-549 breast): 24.8 µM
- TGI (BT-549 breast): > 25 µM
- GI50 (CAKI-1 renal): > 25 µM
- TGI (CAKI-1 renal): > 25 µM
- GI50 (CCRF-CEM leukemia): > 25 µM
- TGI (CCRF-CEM leukemia): > 25 µM
- GI50 (COLO 205 colon): > 25 µM
- TGI (COLO 205 colon): > 25 µM
- GI50 (DU-145 prostate): > 25 µM
- TGI (DU-145 prostate): > 25 µM
- GI50 (HCC-2998 colon): > 25 µM
- TGI (HCC-2998 colon): > 25 µM
- GI50 (HCT-116 colon): > 25 µM
- TGI (HCT-116 colon): > 25 µM
- GI50 (HCT-15 colon): > 25 µM
- TGI (HCT-15 colon): > 25 µM
- GI50 (HL-60(TB) leukemia): > 25 µM
- TGI (HL-60(TB) leukemia): > 25 µM
- GI50 (HOP-62 NSCLC): > 25 µM
- TGI (HOP-62 NSCLC): > 25 µM
- GI50 (HOP-92 NSCLC): 15.4 µM
- TGI (HOP-92 NSCLC): > 25 µM
- GI50 (HS 578T breast): > 25 µM
- TGI (HS 578T breast): > 25 µM
- GI50 (HT29 colon): > 25 µM
- TGI (HT29 colon): > 25 µM
- GI50 (IGROV1 ovarian): > 25 µM
- TGI (IGROV1 ovarian): > 25 µM
- GI50 (K-562 leukemia): > 25 µM
- TGI (K-562 leukemia): > 25 µM
- GI50 (KM12 colon): > 25 µM
- TGI (KM12 colon): > 25 µM
- GI50 (LOX IMVI melanoma): > 25 µM
- TGI (LOX IMVI melanoma): > 25 µM
- GI50 (M14 melanoma): > 25 µM
- TGI (M14 melanoma): > 25 µM
- GI50 (MALME-3M melanoma): > 22.5 µM
- TGI (MALME-3M melanoma): > 25 µM
- GI50 (MCF7 breast): > 25 µM
- TGI (MCF7 breast): > 25 µM
- GI50 (MDA-MB-231 breast): > 25 µM
- TGI (MDA-MB-231 breast): > 25 µM
- GI50 (MDA-MB-435): > 25 µM
- TGI (MDA-MB-435): > 25 µM
- GI50 (MOLT-4 leukemia): > 25 µM
- TGI (MOLT-4 leukemia): > 25 µM
- GI50 (NCI-H226 lung): > 25 µM
- TGI (NCI-H226 lung): > 25 µM
- GI50 (NCI-H23 lung): > 25 µM
- TGI (NCI-H23 lung): > 25 µM
- GI50 (NCI-H460 lung): > 25 µM
- TGI (NCI-H460 lung): > 25 µM
- GI50 (NCI-H522 lung): 15 µM
- TGI (NCI-H522 lung): > 25 µM
- GI50 (NCI/ADR-RES ovarian): > 25 µM
- TGI (NCI/ADR-RES ovarian): > 25 µM
- GI50 (OVCAR-3 ovarian): > 25 µM
- TGI (OVCAR-3 ovarian): > 25 µM
- GI50 (OVCAR-4 ovarian): > 24 µM
- TGI (OVCAR-4 ovarian): > 25 µM
- GI50 (OVCAR-5 ovarian): > 25 µM
- TGI (OVCAR-5 ovarian): > 25 µM
- GI50 (OVCAR-8 ovarian): > 25 µM
- TGI (OVCAR-8 ovarian): > 25 µM
- GI50 (PC-3 prostate): > 25 µM
- TGI (PC-3 prostate): > 25 µM
- GI50 (RPMI-8226 leukemia): > 25 µM
- TGI (RPMI-8226 leukemia): > 25 µM
- GI50 (RXF 393 renal): > 17.9 µM
- TGI (RXF 393 renal): > 25 µM
- GI50 (SF-268 CNS): > 25 µM
- TGI (SF-268 CNS): > 25 µM
- GI50 (SF-295 CNS): > 25 µM
- TGI (SF-295 CNS): > 25 µM
- GI50 (SF-539 CNS): > 25 µM
- TGI (SF-539 CNS): > 25 µM
- GI50 (SK-MEL-2 melanoma): > 25 µM
- TGI (SK-MEL-2 melanoma): > 25 µM
- GI50 (SK-MEL-28 melanoma): > 25 µM
- TGI (SK-MEL-28 melanoma): > 25 µM
- GI50 (SK-MEL-5 melanoma): > 25 µM
- TGI (SK-MEL-5 melanoma): > 25 µM
- GI50 (SK-OV-3 ovarian): > 25 µM
- TGI (SK-OV-3 ovarian): > 25 µM
- GI50 (SN12C renal): > 25 µM
- TGI (SN12C renal): > 25 µM
- GI50 (SNB-19 CNS): > 25 µM
- TGI (SNB-19 CNS): > 25 µM
- GI50 (SNB-75 CNS): > 25 µM
- TGI (SNB-75 CNS): > 25 µM
- GI50 (SR leukemia): > 25 µM
- TGI (SR leukemia): > 25 µM
- GI50 (SW-620 colon): > 25 µM
- TGI (SW-620 colon): > 25 µM
- GI50 (T-47D breast): 12.3 µM
- TGI (T-47D breast): > 25 µM
- GI50 (TK-10 renal): > 25 µM
- TGI (TK-10 renal): > 25 µM
- GI50 (U251 CNS): > 25 µM
- TGI (U251 CNS): > 25 µM
- GI50 (UACC-257 melanoma): > 25 µM
- TGI (UACC-257 melanoma): > 25 µM
- GI50 (UACC-62 melanoma): > 25 µM
- TGI (UACC-62 melanoma): > 25 µM
- GI50 (UO-31 renal): > 19.8 µM
- TGI (UO-31 renal): > 25 µM
